Data taken from patent US20140045858A1, “COMPOUND P[…] ALZHEIMER'S DISEASE AND PREPARATION METHOD THEREOF” (priority 2011, published 2014).

Legend:
[1] = test system: rats' cholinergic and oxidative systems; test: Pharmacodynamic study, overall conclusions (rat amnesia model); format: in vivo; settings: conclusion from Groups 3, 6 and 7, single-component patches
From the text: Finally, the activities/contents of AChE, SOD, GSH-Px and MDA in Groups 3-5 approximate to those in the blank control group, that is to say, the levels of oxidase in rat's cholinergic and oxidative systems in the various delivery groups are close to normal level.

[2] = oral delivery; cited from earlier work

Compound: C/C=C1\[C@H]2C=C(C)C[C@]1(N)c1ccc(=O)[nH]c1C2 [huperzine A]
- anti-oxidation effect [1]: certain effect of anti-oxidation
- function of anti-cholinergic damage [1]: certain function of anti-cholinergic damage

Compound: Cc1nc(C)c(C)nc1C.O=P(O)(O)O [tetramethylpyrazine phosphate]
- anti-oxidation effect [1]: very strong anti-oxidation effect
- function of anti-cholinergic damage [1]: relatively poor function of anti-cholinergic damage
- half life (t½) [2]: 2.89 h
